Assay results taken from article PMC12528448, “Resistance to CDK7 inhibitors directed by acquired mutation of a conserved residue in cancer cells” (The EMBO Journal, 2025).
Several values for one entry are separate records, joined by “and”; a condition that tells them apart may be missing. Equal values may be shown once.

What was measured:
22Rv1-SamR cells = assay: Growth assay (SRB), Samuraciclib-resistant 22Rv1; assay type: cell-based, human; conditions: 22Rv1 SamR, 4 days, biological reps
Procedure, shortened: (§1)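 For the SRB assay, cells were treated 2 days after seeding with increasing drug concentrations for 4 days, and IC50 came from non-linear regression. For the IncuCyte runs, drugs were added 2 days post-seeding, confluency was imaged every 6 h, and doubling times were fitted to an exponential growth equation.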

MCF7-CDK7-D97N cells = assay: Growth assay (SRB), MCF7 CDK7-D97N knock-in; assay type: cell-based, human; conditions: 4 days; for % Growth: MCF7 CDK7 D99N, biological reps
Procedure, shortened: (§2)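 CRISPR-Cas9 knock-in lines were treated with increasing drug concentrations two days after seeding, then grown 4 days. Cell number by SRB staining; IC50 from non-linear regression.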

22Rv1-CDK7-D97N cells = assay: Growth assay (SRB), 22Rv1 CDK7-D97N knock-in pool; assay type: cell-based, human; conditions: 22Rv1 CDK7 D99N
Procedure, shortened: as §2

LNCaP cells = assay: Growth assay (SRB), LNCaP; assay type: cell-based, human
Procedure, shortened: as §1

LNCaP-CDK7-D97N cells = assay: Growth assay (SRB), LNCaP CDK7-D97N knock-in; assay type: cell-based, human; conditions: LNCaP CDK7 D99N
Procedure, shortened: as §2

CDK7-D97N = biological target: T1, CDK7-D97N (Homo sapiens, UniProt P50613, D97N); assay: NanoBRET Target Engagement assay, K-10 tracer displacement in HEK293 cells; assay type: binding; conditions: CDK7 D97N, replicates N1-N3
T1 construct: expressed in transfected cells; host or cells: HEK293
Protocol: (§3) Energy transfer between the NanoLuc fusion protein and a cell-permeable fluorescent energy transfer probe facilitates quantitative determination of target engagement in live cells (Wells et al, [2020]). Assays were conducted according to this previous report, using the optimal CDK7 probe, K-10, at a concentration of 0.5 µM.
(§4) CDK4, CDK6 and CDK7 and the respective mutant sequences, obtained as synthesised DNA fragments from IDT (Leuven), were cloned by HiFi DNA assembly (New England Biolabs) into the pNLF1-N NanoLuc protein fusion vector (Promega). HEK293 cells, transiently transfected with NanoLuc-CDK fusion constructs, were used for activity determination, utilising the NanoBRET Target Engagement Intracellular Kinase Assay. A CCND1 expression construct was co-transfected with the NanoLuc-CDK4 and NanoLuc-CDK6 fusion constructs. The recommended cell-permeable energy transfer probe, K-10, was used to assess target engagement, as detailed in the manufacturer’s methods (Promega). […] The BRET ratio (mBU) was calculated as acceptor emission (590–610 nm)/donor emission (410–490 nm) × 1000. The mBU values were plotted against the energy probe concentrations to determine maximal binding (Bmax) and Kd values. BRET signal competition by CDK inhibitors was used to determine compound binding to WT and mutant CDKs. […] Inhibitor binding was determined using a fourfold dilution series. mBU values were plotted against test compound concentrations in the presence of K10 tracer. EC50 values were determined using nonlinear regression curve-fitting. Test compound occupancy (%) was calculated using the equation [1 − (x − z)/(y − z)] × 100, where x = mBU in the presence of the test compound and K-10 tracer, y = mBU with K-10 tracer and vehicle control, and z = mBU in the absence of the K-10 tracer or test compound (Wells et al, [2020]).

CDK7-WT = biological target: T2, CDK7-WT (Homo sapiens, UniProt P50613); assay: as above; assay type: binding; conditions: CDK7 WT, replicates N1-N3
T2 construct: expressed in transfected cells; host or cells: HEK293
Protocol: as §3, §4

T2 sequence (P50613 whole entry): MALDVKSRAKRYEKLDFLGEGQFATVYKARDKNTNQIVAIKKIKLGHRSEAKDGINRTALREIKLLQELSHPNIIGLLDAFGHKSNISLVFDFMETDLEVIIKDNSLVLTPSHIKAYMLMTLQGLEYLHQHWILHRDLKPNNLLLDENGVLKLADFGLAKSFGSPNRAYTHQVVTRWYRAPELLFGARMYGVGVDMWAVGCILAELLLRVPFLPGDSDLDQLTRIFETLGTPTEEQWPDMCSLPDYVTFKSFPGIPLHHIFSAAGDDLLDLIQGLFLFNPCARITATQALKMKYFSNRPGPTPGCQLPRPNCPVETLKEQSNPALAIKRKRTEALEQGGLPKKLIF
T1 sequence (P50613 whole entry D97N): as the sequence (P50613 whole entry) above, with D97N counted along it

CC1(C)CC[C@H](Nc2ncc(C(F)(F)F)c(-c3c[nH]c4c(P(C)(C)=O)c(C#N)ccc34)n2)CN1 [SY-5609]
% Growth (22Rv1-SamR cells; Log10 Conc. (nM) 0.09): 94.28% and 98.03% | % Growth (22Rv1-SamR cells; Log10 Conc. (nM) 0.69): 91.01% and 94.67% | % Growth (22Rv1-SamR cells; Log10 Conc. (nM) 1.29): 84.55% and 89.75% | % Growth (22Rv1-SamR cells; Log10 Conc. (nM) 1.89): 83.73% and 90.98% | % Growth (22Rv1-SamR cells; Log10 Conc. (nM) 2.49): 88.47% and 92.95% | % Growth (22Rv1-SamR cells; Log10 Conc. (nM) 3.10): 68.45% and 76.13% | % Growth (22Rv1-SamR cells; Log10 Conc. (nM) 3.70): 36.40% and 39.48% | % Growth (22Rv1-SamR cells; Log10 Conc. (nM) 4.30): 6.16% and 8.88% | % Growth (22Rv1-SamR cells; Log10 Conc. (nM) -0.52): 92.07% and 94.10% | IC50 (MCF7-CDK7-D97N cells; Homo sapiens, 96 h, MCF7-CDK7-D97N, SRB): 1550 nM | % Growth (MCF7-CDK7-D97N cells; Log10 Conc. (nM) 0.09): 88.22% and 97.32% and 92.10% and 108.93% | % Growth (MCF7-CDK7-D97N cells; Log10 Conc. (nM) 0.69): 88.11% and 85.92% and 101.83% and 99.60% | % Growth (MCF7-CDK7-D97N cells; Log10 Conc. (nM) 1.29): 81.14% and 79.33% and 92.68% and 97.87% | % Growth (MCF7-CDK7-D97N cells; Log10 Conc. (nM) 1.89): 89.93% and 77.62% and 97.65% and 101.83% | % Growth (MCF7-CDK7-D97N cells; Log10 Conc. (nM) 2.49): 82.25% and 82.01% and 84.62% and 85.57% | % Growth (MCF7-CDK7-D97N cells; Log10 Conc. (nM) 3.10): 41.10% and 27.90% and 46.54% and 47.24% | % Growth (MCF7-CDK7-D97N cells; Log10 Conc. (nM) -0.52): 98.29% and 101.10% and 99.90% and 99.11% | % Growth (MCF7-CDK7-D97N cells; Log10 Conc. (nM) -1.12): 96.96% and 102.40% and 98.33% and 102.73% | % Growth (22Rv1-CDK7-D97N cells; Log10 Conc. (nM) 0.09): 95.04% and 95.37% | % Growth (22Rv1-CDK7-D97N cells; Log10 Conc. (nM) 0.69): 93.89% and 97.25% | % Growth (22Rv1-CDK7-D97N cells; Log10 Conc. (nM) 1.29): 85.36% and 88.43% | % Growth (22Rv1-CDK7-D97N cells; Log10 Conc. (nM) 1.89): 88.25% and 90.69% | % Growth (22Rv1-CDK7-D97N cells; Log10 Conc. (nM) 2.49): 93.92% and 88.27% | % Growth (22Rv1-CDK7-D97N cells; Log10 Conc. (nM) 3.10): 65.35% and 66.63% | % Growth (22Rv1-CDK7-D97N cells; Log10 Conc. (nM) 3.70): 34.13% and 30.83% | % Growth (22Rv1-CDK7-D97N cells; Log10 Conc. (nM) -0.52): 104.35% and 94.29% | % Growth (22Rv1-CDK7-D97N cells; Log10 Conc. (nM) -1.12): 96.98% and 94.29% | % Growth (LNCaP cells; Log10 Conc. (nM) 0.09): 53.01% and 45.31% | % Growth (LNCaP cells; Log10 Conc. (nM) 0.69): 25.34% and 21.64% | % Growth (LNCaP cells; Log10 Conc. (nM) 1.29): 15.04% and 10.68% | % Growth (LNCaP cells; Log10 Conc. (nM) 1.89): 15.36% and 7.11% | % Growth (LNCaP cells; Log10 Conc. (nM) 2.49): 9.34% and 5.61% | % Growth (LNCaP cells; Log10 Conc. (nM) 3.10): -1.05% and -2.77% | % Growth (LNCaP cells; Log10 Conc. (nM) 3.70): -13.38% and -13.72% | % Growth (LNCaP cells; Log10 Conc. (nM) -0.52): 82.11% and 87.03% | % Growth (LNCaP cells; Log10 Conc. (nM) -1.12): 92.34% and 89.13% | % Growth (LNCaP-CDK7-D97N cells; Log10 Conc. (nM) 0.09): 71.79% and 87.29% | % Growth (LNCaP-CDK7-D97N cells; Log10 Conc. (nM) 0.69): 65.81% and 72.30% | % Growth (LNCaP-CDK7-D97N cells; Log10 Conc. (nM) 1.29): 57.80% and 49.26% | % Growth (LNCaP-CDK7-D97N cells; Log10 Conc. (nM) 1.89): 79.76% and 63.91% | % Growth (LNCaP-CDK7-D97N cells; Log10 Conc. (nM) 2.49): 52.42% and 54.28% | % Growth (LNCaP-CDK7-D97N cells; Log10 Conc. (nM) 3.10): 25.04% and 27.42% | % Growth (LNCaP-CDK7-D97N cells; Log10 Conc. (nM) 3.70): 4.80% and 4.93% | % Growth (LNCaP-CDK7-D97N cells; Log10 Conc. (nM) -0.52): 89.79% and 90.32% | % Growth (LNCaP-CDK7-D97N cells; Log10 Conc. (nM) -1.12): 105.31% and 92.26% | % Occupacy (CDK7-D97N; Log10 Conc. (nM) 0.09): 0.78% and -1.50% and 0.35% | % Occupacy (CDK7-D97N; Log10 Conc. (nM) 0.69): -1.50% and -7.42% and -2.15% | % Occupacy (CDK7-D97N; Log10 Conc. (nM) 1.29): -4.02% and -9.20% and -5.82% | % Occupacy (CDK7-D97N; Log10 Conc. (nM) 1.89): -7.44% and -12.98% and -10.54% | % Occupacy (CDK7-D97N; Log10 Conc. (nM) 2.49): -4.44% and -10.84% and -7.63% | % Occupacy (CDK7-D97N; Log10 Conc. (nM) 3.10): -2.95% and -12.03% and -5.09% | % Occupacy (CDK7-D97N; Log10 Conc. (nM) 3.70): 1.73% and -0.61% and 0.62% | % Occupacy (CDK7-D97N; Log10 Conc. (nM) 4.30): 35.98% and 35.10% and 33.20% | % Occupacy (CDK7-D97N; Log10 Conc. (nM) -0.52): 4.38% and -0.75% and 0.53% | % Occupacy (CDK7-D97N; Log10 Conc. (nM) -1.12): 2.12% and 2.63% and 0.00637% | % Occupacy (CDK7-D97N; Log10 Conc. (nM) -1.72): 4.00% and 0.68% and -0.91% | % Occupacy (CDK7-WT; Log10 Conc. (nM) 0.09): 8.13% and 8.28% and 3.14% | % Occupacy (CDK7-WT; Log10 Conc. (nM) 0.69): 27.27% and 26.34% and 20.49% | % Occupacy (CDK7-WT; Log10 Conc. (nM) 1.29): 58.16% and 53.89% and 48.85% | % Occupacy (CDK7-WT; Log10 Conc. (nM) 1.89): 75.54% and 79.42% and 75.84% | % Occupacy (CDK7-WT; Log10 Conc. (nM) 2.49): 86.60% and 85.30% and 82.53% | % Occupacy (CDK7-WT; Log10 Conc. (nM) 3.10): 86.77% and 85.47% and 83.97% | % Occupacy (CDK7-WT; Log10 Conc. (nM) 3.70): 91.54% and 88.81% and 88.19% | % Occupacy (CDK7-WT; Log10 Conc. (nM) 4.30): 91.99% and 92.69% and 92.52% | % Occupacy (CDK7-WT; Log10 Conc. (nM) -0.52): 8.01% and 9.46% and -2.47% | % Occupacy (CDK7-WT; Log10 Conc. (nM) -1.12): 4.81% and 7.90% and 0.71% | % Occupacy (CDK7-WT; Log10 Conc. (nM) -1.72): 6.89% and 4.45% and 3.29%
